Assay results taken from ChEMBL document CHEMBL5360525, “Design, synthesis and anti-tumor efficacy of novel phenyl thiazole/triazole derivatives as selective TrkA inhibitors” (Bioorg Med Chem, 2022).
Active and inactive are the calls of the source. The calls are words filed in the database; no cut-off is given here.

Legend:
[1] = tested on: A549; test: Antiproliferative activity against human A549 cells assessed as reduction in cell viability for 72 hrs by MTT assay; settings: A549, 72 h
[2] = tested on: KM12; test: Antiproliferative activity against human KM12 cells assessed as reduction in cell viability for 72 hrs by MTT assay; settings: KM12, 72 h
[3] = tested on: KM12; test: Inhibition of colony formation in human KM12 cells assessed as decrease in colony count at 75 nM incubated for 72 hrs by crystal violet staining based assay; assay type: functional, cell-based
[4] = target: NT-3 growth factor receptor (Homo sapiens, UniProt Q16288); test: Inhibition of TRKC (unknown origin) incubated for 1 hr by mobility shift assay
[5] = target: High affinity nerve growth factor receptor (Homo sapiens, UniProt P04629); test: Inhibition of TRKA (unknown origin) incubated for 1 hr by mobility shift assay
[6] = target: BDNF/NT-3 growth factors receptor (Homo sapiens, UniProt Q16620); test: Inhibition of TRKB (unknown origin) incubated for 1 hr by mobility shift assay
Sequence of BDNF/NT-3 growth factors receptor (Q16620 whole entry): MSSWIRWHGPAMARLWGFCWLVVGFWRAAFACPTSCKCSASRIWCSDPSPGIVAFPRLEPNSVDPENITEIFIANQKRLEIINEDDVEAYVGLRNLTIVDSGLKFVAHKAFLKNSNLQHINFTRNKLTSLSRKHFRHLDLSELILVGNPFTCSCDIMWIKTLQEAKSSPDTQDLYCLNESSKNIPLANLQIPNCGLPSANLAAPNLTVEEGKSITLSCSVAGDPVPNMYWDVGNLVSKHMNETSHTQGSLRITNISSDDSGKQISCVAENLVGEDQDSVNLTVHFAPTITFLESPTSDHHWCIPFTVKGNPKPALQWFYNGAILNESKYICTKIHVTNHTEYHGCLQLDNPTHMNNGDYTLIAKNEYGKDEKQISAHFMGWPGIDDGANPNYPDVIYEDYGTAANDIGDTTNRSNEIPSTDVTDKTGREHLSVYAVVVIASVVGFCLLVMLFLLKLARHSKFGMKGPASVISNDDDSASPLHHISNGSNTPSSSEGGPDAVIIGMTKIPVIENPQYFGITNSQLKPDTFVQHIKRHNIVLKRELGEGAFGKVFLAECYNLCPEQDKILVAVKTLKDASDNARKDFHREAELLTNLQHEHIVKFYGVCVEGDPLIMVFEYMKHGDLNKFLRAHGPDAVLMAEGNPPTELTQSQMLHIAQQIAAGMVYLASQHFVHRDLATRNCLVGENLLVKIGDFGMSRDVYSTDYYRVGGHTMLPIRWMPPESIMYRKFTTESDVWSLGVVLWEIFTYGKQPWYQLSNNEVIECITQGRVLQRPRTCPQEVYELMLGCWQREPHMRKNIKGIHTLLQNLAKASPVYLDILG

Sequence of High affinity nerve growth factor receptor (P04629 whole entry): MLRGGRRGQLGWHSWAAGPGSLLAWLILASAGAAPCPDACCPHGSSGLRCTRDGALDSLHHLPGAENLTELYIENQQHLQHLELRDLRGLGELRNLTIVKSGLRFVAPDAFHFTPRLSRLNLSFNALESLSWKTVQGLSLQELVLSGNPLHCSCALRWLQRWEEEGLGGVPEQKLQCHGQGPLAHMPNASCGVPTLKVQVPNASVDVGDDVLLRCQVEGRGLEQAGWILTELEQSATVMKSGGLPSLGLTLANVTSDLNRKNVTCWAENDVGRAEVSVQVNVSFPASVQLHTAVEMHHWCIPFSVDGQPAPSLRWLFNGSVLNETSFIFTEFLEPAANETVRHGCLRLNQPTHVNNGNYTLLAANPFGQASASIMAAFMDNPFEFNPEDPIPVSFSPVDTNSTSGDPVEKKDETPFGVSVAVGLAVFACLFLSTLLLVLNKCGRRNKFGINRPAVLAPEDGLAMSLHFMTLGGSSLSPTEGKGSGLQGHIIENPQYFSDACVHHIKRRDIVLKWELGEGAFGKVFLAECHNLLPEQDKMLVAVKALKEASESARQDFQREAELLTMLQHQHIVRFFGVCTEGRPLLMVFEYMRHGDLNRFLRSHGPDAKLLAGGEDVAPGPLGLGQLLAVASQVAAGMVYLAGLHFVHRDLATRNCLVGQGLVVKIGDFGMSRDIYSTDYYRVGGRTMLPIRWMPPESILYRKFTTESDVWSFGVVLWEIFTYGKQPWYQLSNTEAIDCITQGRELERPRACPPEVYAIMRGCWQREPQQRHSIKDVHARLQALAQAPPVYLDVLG
Sequence of NT-3 growth factor receptor (Q16288 whole entry): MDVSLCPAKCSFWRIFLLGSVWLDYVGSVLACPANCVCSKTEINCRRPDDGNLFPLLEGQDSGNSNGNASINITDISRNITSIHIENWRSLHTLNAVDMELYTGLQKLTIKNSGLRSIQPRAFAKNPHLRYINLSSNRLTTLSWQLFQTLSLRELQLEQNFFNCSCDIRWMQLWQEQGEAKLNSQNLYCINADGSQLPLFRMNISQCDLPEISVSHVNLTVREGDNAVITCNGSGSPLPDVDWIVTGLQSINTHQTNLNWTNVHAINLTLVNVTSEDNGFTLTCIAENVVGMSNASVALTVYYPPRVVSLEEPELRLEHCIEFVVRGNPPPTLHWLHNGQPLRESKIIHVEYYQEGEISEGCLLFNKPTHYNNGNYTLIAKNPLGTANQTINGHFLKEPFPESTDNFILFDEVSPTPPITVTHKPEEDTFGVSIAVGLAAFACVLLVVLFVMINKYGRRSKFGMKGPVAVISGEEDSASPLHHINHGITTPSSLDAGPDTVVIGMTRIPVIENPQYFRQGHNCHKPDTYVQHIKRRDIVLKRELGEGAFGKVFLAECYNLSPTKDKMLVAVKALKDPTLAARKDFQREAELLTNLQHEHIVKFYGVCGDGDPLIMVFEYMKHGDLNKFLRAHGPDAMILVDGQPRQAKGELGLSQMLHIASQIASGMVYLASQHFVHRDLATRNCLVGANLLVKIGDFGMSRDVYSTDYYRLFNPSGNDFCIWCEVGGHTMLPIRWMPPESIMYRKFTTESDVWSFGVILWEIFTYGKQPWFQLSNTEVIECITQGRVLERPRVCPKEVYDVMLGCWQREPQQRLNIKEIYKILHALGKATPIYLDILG

`O=C(Nc1cccc(-c2csc(N3CCOCC3)n2)c1)c1cc(F)cc(F)c1` showed an IC50 [1] of 0.27 µM and an IC50 [2] of 9.63 µM.
`O=C(Nc1cccc(-n2cc(CN3CCS(=O)(=O)CC3)nn2)c1)c1cc(F)cc(F)c1` was tested, and the IC50 [1] was > 10 µM and the IC50 [2] was 12.2 µM.
In the case of `O=C(Nc1cccc(-n2cc(CNC3CC3)nn2)c1)c1cc(F)cc(F)c1`, the IC50 [1] is reported as > 10 µM and the IC50 [2] is reported as 5.21 µM.
`O=C(Nc1cccc(-c2csc(N3CCCC3)n2)c1)c1cc(F)cc(F)c1` gave an IC50 [1] of 0.17 µM and an IC50 [2] of 16.5 µM.
With `CN1CCN(c2ccc(NCc3cn(-c4cccc(CNc5cc(F)cc(F)c5)c4)nn3)cc2C(=O)N2CCCCC2)CC1` the IC50 [1] was > 10 µM and the IC50 [2] was 0.76 µM.
For `O=C(Nc1cccc(-n2cc(CN3CCCC3)nn2)c1)c1cc(F)cc(F)c1`, the IC50 [1] was > 10 µM and the IC50 [2] was 8.02 µM.
With `CN1CCN(c2ccc(C(=O)Nc3n[nH]c4ccc(Cc5cc(F)cc(F)c5)cc34)c(NC3CCOCC3)c2)CC1` the inhibition [3] was “Active”.
`CN1CCN(c2ccc(NCc3cn(-c4cccc(CNc5cc(F)cc(F)c5)c4)nn3)cc2C(=O)N2CCCC2)CC1` was tested, and the IC50 [1] was > 10 µM and the IC50 [2] was 0.95 µM.
Compound `CN(C)c1nc(-c2cccc(NC(=O)c3cc(F)cc(F)c3)c2)cs1` has an IC50 [1] of 1.21 µM and an IC50 [2] of 28.8 µM.
For `O=C(Nc1cccc(-c2csc(N3CCN(CCO)CC3)n2)c1)c1cc(F)cc(F)c1`, the IC50 [4] was > 0.1 µM, the IC50 [5] was > 0.1 µM and the IC50 [1] was 0.51 µM. For the same compound, the IC50 [6] was > 0.1 µM and the IC50 [2] was 7.25 µM.
In the case of `O=C(Nc1cccc(-c2csc(NCCO)n2)c1)c1cc(F)cc(F)c1`, the IC50 [1] is reported as 0.55 µM and the IC50 [2] is reported as 17.1 µM.
Work on `O=C(Nc1cccc(-c2csc(N3CCC[C@H]3CO)n2)c1)c1cc(F)cc(F)c1` yielded an IC50 [1] of 0.39 µM and an IC50 [2] of 8.16 µM.
`O=C(Nc1cccc(-c2csc(N3CCC(O)CC3)n2)c1)c1cc(F)cc(F)c1` was tested, and the IC50 [1] was 0.21 µM and the IC50 [2] was 7.57 µM.
With `O=C(Nc1cccc(-n2cc(CN3CCSCC3)nn2)c1)c1cc(F)cc(F)c1` the IC50 [1] was > 10 µM and the IC50 [2] was 12.3 µM.
Work on `CN1CCN(c2nc(-c3cccc(NC(=O)c4cc(F)cc(F)c4)c3)cs2)CC1` yielded an IC50 [1] of 0.72 µM and an IC50 [2] of 14 µM.
For `CN(C)Cc1cn(-c2cccc(NC(=O)c3cc(F)cc(F)c3)c2)nn1`, the IC50 [1] was > 10 µM and the IC50 [2] was 17.5 µM.
In the case of `O=C(Nc1cccc(-n2cc(CNC3CCCC3)nn2)c1)c1cc(F)cc(F)c1`, the IC50 [1] is reported as > 10 µM and the IC50 [2] is reported as 3.83 µM.
In the case of `CN1CCN(c2ccc(NCc3cn(-c4cccc(CNc5cc(F)cc(F)c5)c4)nn3)cc2C(=O)N(C)C)CC1`, the IC50 [1] is reported as > 10 µM and the IC50 [2] is reported as 1.71 µM.
`CN1CCN(c2ccc(NCc3cn(-c4cccc(NCc5cc(F)cc(F)c5)c4)nn3)cc2C(=O)N2CCOCC2)CC1` was tested, and the IC50 [1] was > 10 µM and the IC50 [2] was 0.63 µM.
